IC50 data for 34 molecules are collected here from patent US9073821B2, “Hydroxamic acid derivative” (priority 2010, dated 2015).

This assay deals with Pseudomonas aeruginosa LpxC enzyme (Pseudomonas aeruginosa (strain ATCC 15692 / DSM 22644 / CIP 104116 / JCM 14847 / LMG 12228 / 1C / PRS 101 / PAO1), UniProt P47205). Briefly: biochemical. It counts as biochemical. As to conditions: inhibitory activity on Pseudomonas aeruginosa LpxC enzyme, class symbols A/B/C; read-out: Enzyme inhibitory activity.
As to `CNC(=O)C(C(=O)NO)N(C)C(=O)c1ccc(CCc2ccc(CCN3CCOCC3)cc2)cc1` (stereo not shown) [Compound 209, N-hydroxy-N′-methyl-2-{methyl[4-(2-{4-[2-(morpholin-4-yl)ethyl]phenyl}ethyl)benzoyl]amino}propanediamide], the IC50 was < 10 nM.
In the case of `CNC(=O)C(C(=O)NO)N(C)C(=O)c1ccc(CCc2ccc(CCN3CCCOCC3)cc2)cc1` (stereo not shown) [Compound 210, N-hydroxy-N′-methyl-2-{methyl[4-(2-{4-[2-(1,4-oxazepan-4-yl)ethyl]phenyl}ethyl)benzoyl]amino}propanediamide], the IC50 was 10 to 100 nM.
As for `CCCOc1ccc(-c2ccc(C(=O)N(C)C(C(=O)NC)C(=O)NO)cc2)cc1` (stereo not shown) [Compound 212, N-hydroxy-N′-methyl-2-{methyl[(4′-propoxybiphenyl-4-yl)carbonyl]amino}propanediamide], the figure is < 10 nM.
As to `CNC(=O)C(C(=O)NO)N(C)C(=O)c1ccc(-c2ccc(OC(C)C)cc2)cc1` (stereo not shown) [Compound 213, N-hydroxy-N′-methyl-2-(methyl {[4′-(propan-2-yloxy)biphenyl-4-yl]carbonyl}amino)propanediamide], the IC50 was < 10 nM.
As for `CNC(=O)C(C(=O)NO)N(C)C(=O)c1ccc(-c2ccc(OCC(C)C)cc2)cc1` (stereo not shown) [Compound 214, N-hydroxy-N′-methyl-2-(methyl {[4′-(2-methylpropoxy)biphenyl-4-yl]carbonyl}amino)propanediamide], the figure is < 10 nM; as for `CNC(=O)C(C(=O)NO)N(C)C(=O)c1ccc(-c2ccc(OCCCCOC)cc2)cc1` (stereo not shown) [Compound 215, N-hydroxy-2-[{[4′-(4-methoxybutoxy)biphenyl-4-yl]carbonyl}(methyl)amino]-N′-methylpropanediamide], < 10 nM.
In the case of `CNC(=O)C(C(=O)NO)N(C)C(=O)c1ccc(-c2ccc(OC)c(F)c2)cc1` (stereo not shown) [Compound 216, 2-{[(3′-fluoro-4′-methoxybiphenyl-4-yl)carbonyl](methyl)amino}-N-hydroxy-N′-methylpropanediamide], the IC50 was < 10 nM.
Regarding `CNC(=O)C(C(=O)NO)N(C)C(=O)c1ccc(-c2ccc(OCCCNC3CC3)cc2)cc1` (stereo not shown) [Compound 217, 2-[({4′-[3-(cyclopropylamino)propoxy]biphenyl-4-yl}carbonyl)(methyl)amino]-N-hydroxy-N′-methylpropanediamide], the IC50 was 10 to 100 nM.
In the case of `CNC(=O)C(C(=O)NO)N(C)C(=O)c1ccc(C#Cc2ccc(OC)nc2)cc1` (stereo not shown) [Compound 219, N-hydroxy-2-[{4-[(6-methoxypyridin-3-yl)ethynyl]benzoyl}(methyl)amino]-N′-methylpropanediamide], the IC50 was < 10 nM.
As to `CNC(=O)C(C(=O)NO)N(C)C(=O)c1ccc(-c2cc(F)c(F)c(F)c2)cc1` (stereo not shown) [Compound 220, N-hydroxy-N′-methyl-2-{methyl[(3′,4′,5′-trifluorobiphenyl-4-yl)carbonyl]amino}propanediamide], the IC50 lay within 10 to 100 nM.
Turning to `CNC(=O)C(C(=O)NO)N(C)C(=O)c1ccc(-c2ccc(CCCCN3CCOCC3)cc2)cc1` (stereo not shown) [Compound 221, N-hydroxy-N′-methyl-2-[methyl({4′-[4-(morpholin-4-yl)butyl]biphenyl-4-yl}carbonyl)amino]propanediamide], the IC50 was < 10 nM.
With `CNC(=O)C(C(=O)NO)N(C)C(=O)c1ccc(-c2cc(Cl)cc(Cl)c2)cc1` (stereo not shown) [Compound 222, 2-{[(3′,5′-dichlorobiphenyl-4-yl)carbonyl](methyl)amino}-N-hydroxy-N′-methylpropanediamide], the IC50 lay in the range of 10 to 100 nM.
As to `CNC(=O)C(C(=O)NO)N(C)C(=O)c1ccc(-c2ccc(F)c(Cl)c2)cc1` (stereo not shown) [Compound 223, 2-{[(3′-chloro-4′-fluorobiphenyl-4-yl)carbonyl](methyl)amino}-N-hydroxy-N′-methylpropanediamide], the IC50 was < 10 nM.
Take `CNC(=O)C(C(=O)NO)N(C)C(=O)c1ccc(-c2ccc(Cl)c(Cl)c2)cc1` (stereo not shown) [Compound 224, 2-{[(3′,4′-dichlorobiphenyl-4-yl)carbonyl](methyl)amino}-N-hydroxy-N′-methylpropanediamide]: the IC50 was < 10 nM.
For the molecule `CNC(=O)C(C(=O)NO)N(CC(F)F)C(=O)c1ccc(-c2ccc(OCCCN3CCOCC3)cc2)cc1` (stereo not shown) [Compound 225, 2-[(2,2-difluoroethyl)({4′-[3-(morpholin-4-yl)propoxy]biphenyl-4-yl}carbonyl)amino]-N-hydroxy-N′-methylpropanediamide], the IC50 was < 10 nM.
With `CNC(=O)C(C(=O)NO)N(C)C(=O)c1ccc(-c2ccc(NC)cc2F)cc1` (stereo not shown) [Compound 226, 2-[{[2′-fluoro-4′-(methylamino)biphenyl-4-yl]carbonyl}(methyl)amino]-N-hydroxy-N′-methylpropanediamide], the IC50 is < 10 nM.
`CNC(=O)C(C(=O)NO)N(C)C(=O)c1ccc(-c2ccc(NC)c(Cl)c2)cc1` (stereo not shown) [Compound 227, 2-[{[3′-chloro-4′-(methylamino)biphenyl-4-yl]carbonyl}(methyl)amino]-N-hydroxy-N′-methylpropanediamide]: the IC50 is < 10 nM.
Consider `CNC(=O)C(C(=O)NO)N(C)C(=O)c1ccc(-c2ccc(NCCCOC)cc2)cc1` (stereo not shown) [Compound 228, N-hydroxy-2-[({4′-[(3-methoxypropyl)amino]biphenyl-4-yl}carbonyl)(methyl)amino]-N′-methylpropanediamide], for which the IC50 is < 10 nM.
`CNC(=O)C(C(=O)NO)N(C)C(=O)c1ccc(-c2ccc(N3CC(OC)C3)cc2)cc1` (stereo not shown) [Compound 229, N-hydroxy-2-[{[4′-(3-methoxyazetidin-1-yl)biphenyl-4-yl]carbonyl}(methyl)amino]-N′-methylpropanediamide]: the IC50 was < 10 nM.
As for `CCNc1ccc(-c2ccc(C(=O)N(C)C(C(=O)NC)C(=O)NO)cc2)cc1F` (stereo not shown) [Compound 230, 2-[{[4′-(ethylamino)-3′-fluorobiphenyl-4-yl]carbonyl}(methyl)amino]-N-hydroxy-N′-methylpropanediamide], the IC50 is < 10 nM.
In the case of `CCCNc1ccc(-c2ccc(C(=O)N(C)C(C(=O)NC)C(=O)NO)cc2)cc1F` (stereo not shown) [Compound 231, 2-[{[3′-fluoro-4′-(propylamino)biphenyl-4-yl]carbonyl}(methyl)amino]-N-hydroxy-N′-methylpropanediamide], the IC50 is < 10 nM.
`CNC(=O)C(C(=O)NO)N(C)C(=O)c1ccc(-c2ccc(CN3CCOCC3)cc2)cc1` (stereo not shown) [Compound 232, N-hydroxy-N′-methyl-2-(methyl {[4′-(morpholin-4-ylmethyl)biphenyl-4-yl]carbonyl}amino)propanediamide]: the IC50 is 10 to 100 nM.
In the case of `CNC(=O)C(C(=O)NO)N(C)C(=O)c1ccc(-c2c(F)cccc2F)cc1` (stereo not shown) [Compound 233, 2-{[(2′,6′-difluorobiphenyl-4-yl)carbonyl](methyl)amino}-N-hydroxy-N′-methylpropanediamide], the IC50 was in the range of 10 to 100 nM.
`CNC(=O)C(C(=O)NO)N(C)C(=O)c1ccc(C#Cc2ccc(CN3CCCCC3)cc2)cc1` (stereo not shown) [Compound 234, N-hydroxy-N′-methyl-2-[methyl(4-{[4-(piperidin-1-ylmethyl)phenyl]ethynyl}benzoyl)amino]propanediamide]: the IC50 is < 10 nM.
For `CCN(C(=O)c1ccc(-c2ccc(NC)cc2)cc1)C(C(=O)NC)C(=O)NO` (stereo not shown) [Compound 235, 2-(ethyl {[4′-(methylamino)biphenyl-4-yl]carbonyl}amino)-N-hydroxy-N′-methylpropanediamide], the IC50 is < 10 nM.
Consider `CNC(=O)C(C(=O)NO)N(C)C(=O)c1ccc(-c2ccc(CCN3CCOCC3)cc2)cc1` (stereo not shown) [Compound 236, N-hydroxy-N′-methyl-2-[methyl({4′-[2-(morpholin-4-yl)ethyl]biphenyl-4-yl}carbonyl)amino]propanediamide], for which the IC50 is < 10 nM.
As for `CNC(=O)C(C(=O)NO)N(C)C(=O)c1ccc(-c2ccc(CCF)cc2)cc1` (stereo not shown) [Compound 238, 2-[{[4′-(2-fluoroethyl)biphenyl-4-yl]carbonyl}(methyl)amino]-N-hydroxy-N′-methylpropanediamide], the figure is < 10 nM.
Consider `CNC(=O)C(C(=O)NO)N(C)C(=O)c1ccc(-c2ccc(CN(C)C(C)=O)cc2)cc1` (stereo not shown) [Compound 239, 2-{[(4′-{[acetyl(methyl)amino]methyl}biphenyl-4-yl)carbonyl](methyl)amino}-N-hydroxy-N′-methylpropanediamide], for which the IC50 was 10 to 100 nM.
As for `CNC(=O)C(C(=O)NO)N(C)C(=O)c1ccc(-c2ccc(C(C)(C)C)cc2)cc1` (stereo not shown) [Compound 240, 2-{[(4′-tert-butylbiphenyl-4-yl)carbonyl](methyl)amino}-N-hydroxy-N′-methylpropanediamide], the IC50 fell in the range of 10 to 100 nM.
Take `CNC(=O)C(C(=O)NO)N(C)C(=O)c1ccc(-c2ccc(CNC(C)=O)cc2)cc1` (stereo not shown) [Compound 241, 2-[({4′-[(acetylamino)methyl]biphenyl-4-yl}carbonyl)(methyl)amino]-N-hydroxy-N′-methylpropanediamide]: the IC50 fell in the range of 10 to 100 nM.
As to `CCNC(=O)C(C(=O)NO)N(C)C(=O)c1ccc(-c2ccccc2)cc1` (stereo not shown) [Compound 242, 2-[(biphenyl-4-ylcarbonyl)(methyl)amino]-N-ethyl-N′-hydroxypropanediamide], the IC50 was 10 to 100 nM.
With `CNC(=O)C(C(=O)NO)N(C)C(=O)c1ccc(-c2ccc(OCCN3CCOCC3)cc2)cc1` (stereo not shown) [Compound 243, N-hydroxy-N′-methyl-2-[methyl({4′-[2-(morpholin-4-yl)ethoxy]biphenyl-4-yl}carbonyl)amino]propanediamide], the IC50 is 10 to 100 nM.
In the case of `CNC(=O)C(C(=O)NO)N(C)C(=O)c1ccc(-c2ccc(N3CC(O)C3)cc2)cc1` (stereo not shown) [Compound 244, N-hydroxy-2-[{[4′-(3-hydroxyazetidin-1-yl)biphenyl-4-yl]carbonyl}(methyl)amino]-N′-methylpropanediamide], the IC50 lay within 10 to 100 nM.
Take `CCCNc1ccc(-c2ccc(C(=O)N(C)C(C(=O)NC)C(=O)NO)cc2)cc1` (stereo not shown) [Compound 245, N-hydroxy-N′-methyl-2-(methyl {[4′-(propylamino)biphenyl-4-yl]carbonyl}amino)propanediamide]: the IC50 is < 10 nM.
